No end group written: not given here.
Experiments:
Assay type in all cases: in vivo, BALB/c-Mäuse
Knochenmarkstammzellen [1] = assay: Agar colony test (CFU test) of bone marrow stem cells after sublethal X-ray irradiation, followed by DA-SP5; conditions: after single X-ray irradiation, DA-SP5 10 µg i.p. three times weekly, normal value 121 ± 23
Text: (§1) Es wurde gefunden, daß als Folge einer Therapie mit Zytostatika bzw. durch eine Bestrahlungstherapie sich im Blut der entsprechend behandelten Patienten die Zahl immunologischer Abwehrzellen vermindert. Dies resultiert, weil durch die o. g. Therapie auch die Stammzellen des Knochenmarks (aus diesen entstehen die immunologischen Abwehrzellen) zytotoxisch geschädigt werden. Die Substanz DA-SP5 erhöht die Nachbildung von immunologischen Abwehrzellen aus Stammzellen des Knochenmarks (W. DIEZEL et al. (1989): DD-PS 268160 Al). Es hat sich gezeigt, daß DA-SP5 direkt die Proliferation unreifer Stammzellen des Knochenmarks beschleunigen kann bzw. die Wirkung des Kolonien-stimulierrenden Faktors GM-CSF synergistisch erhöht. Überraschenderweise wurde jetzt festgestellt, daß als Folge dieser Wirkung die zytotoxische Schädigung von Knochenmarkstammzellen (und damit die verminderte Entstehung immunologischer Abwehrzellen) durch Chemotherapeutika bzw. infolge Bestrahlung der Zellen, kompensiert werden kann. Die erfindungsgemäße Wirkung wurde dadurch festgestellt, indem BALB/c-Mäuse hochdosiert mit zytotoxischen (Zellproliferations-hemmenden) Therapeutika systemisch behandelt wurden. Anschließend erfolgte eine Therapie mit DA-SP5 bzw. es wurde lediglich 0,9%ige NaCl-Lösung (Kontrallgruppe) appliziert. Während dieser Therapie wurde untersucht, ob die DE-SP5-behandelten Tiere zeitlich eher befähigt wurden "Knochenmarkstammzell-Kolonien" entsprechend der Norm zu bilden. Eine diesbezüglich schnellere Bildung korreliert mit einer schnelleren Entstehung entsprechender immunologischer Abwehrzellen im Blut. In einer weiteren Versuchsserie wurden BALB/c-Mäuse subletal bestrahlt, und anschließend ebenfalls mit oder ohne DA-SP5 behandelt. Auch bei diesen Tieren wurde untersucht, ob sie zeitlich eher befähigt waren, "Knochenmarkzell-Kolonien" entsprechend der Norm zu bilden. Das erfindungsgemäß verwendete Mittel wurde in Mengen von 0,05mg bis 1,0 mg pro kg Körpergewicht verabreicht. […]

Knochenmarkstammzellen [2] = assay: Agar colony test (CFU test) of bone marrow stem cells after methotrexate treatment, followed by DA-SP5; conditions: after Methotrexat 175 mg/kg days +1 to +5, DA-SP5 10 µg i.p. three times weekly, normal value 121 ± 23
Text: as §1

Knochenmarkstammzellen [3] = assay: Agar colony test (CFU test) of bone marrow stem cells after dexamethasone treatment, followed by DA-SP5; conditions: after Dexamethason 150 mg/kg i.p. days +1 to +5, DA-SP5 10 µg i.p. three times weekly, normal value 121 ± 23
Text: as §1

## Ac-RK(Ac)EVY [DA-SP5, (N^α-acetyl-L-arginyl)-(N^ε-acetyl-L-lysyl)-L-glutamyl-L-valyl-L-tyrosin]
Knochenmarkstammzellen [1]; Tag Nr.10 of DA-SP5 therapy
  Kolonien pro Femur (x̄ ± s): 8 ± 6
Knochenmarkstammzellen [1]; Tag Nr.20 of DA-SP5 therapy
  Kolonien pro Femur (x̄ ± s): 116 ± 10
Knochenmarkstammzellen [1]; Tag Nr.40 of DA-SP5 therapy
  Kolonien pro Femur (x̄ ± s): 126 ± 12
Knochenmarkstammzellen [2]; Tag Nr. 10 of DA-SP5 therapy
  Kolonien pro Femur (x̄ ± s): 9 ± 6
Knochenmarkstammzellen [2]; Tag Nr. 20 of DA-SP5 therapy
  Kolonien pro Femur (x̄ ± s): 53 ± 24
Knochenmarkstammzellen [2]; Tag Nr. 40 of DA-SP5 therapy
  Kolonien pro Femur (x̄ ± s): 110 ± 20
Knochenmarkstammzellen [3]; Tag Nr. 10 of DA-SP5 therapy
  Kolonien pro Femur (x̄ ± s): 10 ± 8
Knochenmarkstammzellen [3]; Tag Nr. 20 of DA-SP5 therapy
  Kolonien pro Femur (x̄ ± s): 55 ± 21
Knochenmarkstammzellen [3]; Tag Nr. 40 of DA-SP5 therapy
  Kolonien pro Femur (x̄ ± s): 126 ± 18
